# Counter-ions that a name gives are not always drawn. Like-named read-outs stand apart in the source and are kept apart here.
# How the values were obtained:
# Assay type in all cases: biochemical, Ratten
# [1] = molecular target: T1, Synaptosomen-Aufnahme von Noradrenalin (Rattus norvegicus, UniProt Q63380); experiment: Inhibition of noradrenaline uptake in rat brain synaptosomes (hippocampus, 3H-noradrenaline); conditions: for Hemmung der Synaptosomen-Aufnahme von Noradrenalin r.W. (relative Wirksamkeit): Quotient IC50 Referenzverbindung / IC50 Beispielverbindung
# T1 construct: Durch differentielle Zentrifugation wurden Synaptosomen erhalten; from tissue; host or cells: rat brain hippocampus synaptosomes
# T1 sequence (Q63380 1-617): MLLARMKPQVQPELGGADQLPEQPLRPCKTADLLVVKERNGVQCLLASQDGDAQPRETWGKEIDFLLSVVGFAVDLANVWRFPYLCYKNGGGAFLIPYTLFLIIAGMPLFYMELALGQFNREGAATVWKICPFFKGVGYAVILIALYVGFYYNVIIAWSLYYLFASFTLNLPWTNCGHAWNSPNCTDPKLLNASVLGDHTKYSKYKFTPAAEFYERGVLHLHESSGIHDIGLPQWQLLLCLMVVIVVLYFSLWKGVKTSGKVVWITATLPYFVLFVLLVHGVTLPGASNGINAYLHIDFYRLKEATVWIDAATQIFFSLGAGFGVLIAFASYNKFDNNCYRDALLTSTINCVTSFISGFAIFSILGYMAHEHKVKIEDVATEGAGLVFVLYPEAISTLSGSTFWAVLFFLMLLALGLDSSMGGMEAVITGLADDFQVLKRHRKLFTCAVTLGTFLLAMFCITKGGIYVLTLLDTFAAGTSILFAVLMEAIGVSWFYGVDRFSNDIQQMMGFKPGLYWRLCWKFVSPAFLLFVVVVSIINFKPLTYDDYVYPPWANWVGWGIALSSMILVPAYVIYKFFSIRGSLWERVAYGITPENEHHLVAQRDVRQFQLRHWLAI
# Text: (§1) Hemmung der Neurotransmitter-Aufnahme in Rattenhirn-Synaptosomen
# (§2) Hippocampus und Cortex aus Rattenhirn wurden präpariert und in 0,32 M Sucrose-Lösung homogenisiert. Durch differentielle Zentrifugation wurden Synaptosomen erhalten, die in Pufferlösung suspendiert wurden. Die Synaptosomen sind in der Lage, aus dem umgebenden Medium zugefügte Neurotransmittersubstanzen (z.B. Noradrenalin oder Serotonin) aktiv aufzunehmen. Dieser Vorgang ist durch uptake-Hemmer konzentrationsabhängig antagonisierbar. Die Synaptosomen wurden mit den Testsubstanzen in verschiedenen Konzentrationen versetzt und anschließend mit ³H-Noradrenalin (Hippocampus) bzw. ³H-Serotonin (Cortex) bei 37°C inkubiert. Die Substratkonzentration betrug ca. 10 nM. Nach Stoppen der Aufnahme durch Verdünnen mit eisgekühlter Pufferlösung wurden die Synaptosomen abzentrifugiert und die ³H-Aktivität im Sediment gemessen. Der Blindwert wird durch Inkubation bei 0°C ermittelt.
# (§3) Aus den verschiedenen Inhibitor-Konzentrationen gegen Kontrolle ermittelten Hemmwerten wurde durch lineare Regression nach logit-log-Transformation die mittlere Hemmkonzentration IC₅₀ berechnet.
# [2] = molecular target: T2, Synaptosomen-Aufnahme von Serotonin (Rattus norvegicus, UniProt P31652); experiment: Inhibition of serotonin uptake in rat brain synaptosomes (cortex, 3H-serotonin); conditions: for Hemmung der Synaptosomen-Aufnahme von Serotonin r.W. (relative Wirksamkeit): Quotient IC50 Referenzverbindung / IC50 Beispielverbindung
# T2 construct: Durch differentielle Zentrifugation wurden Synaptosomen erhalten; from tissue; host or cells: rat brain cortex synaptosomes
# T2 sequence (P31652 whole entry): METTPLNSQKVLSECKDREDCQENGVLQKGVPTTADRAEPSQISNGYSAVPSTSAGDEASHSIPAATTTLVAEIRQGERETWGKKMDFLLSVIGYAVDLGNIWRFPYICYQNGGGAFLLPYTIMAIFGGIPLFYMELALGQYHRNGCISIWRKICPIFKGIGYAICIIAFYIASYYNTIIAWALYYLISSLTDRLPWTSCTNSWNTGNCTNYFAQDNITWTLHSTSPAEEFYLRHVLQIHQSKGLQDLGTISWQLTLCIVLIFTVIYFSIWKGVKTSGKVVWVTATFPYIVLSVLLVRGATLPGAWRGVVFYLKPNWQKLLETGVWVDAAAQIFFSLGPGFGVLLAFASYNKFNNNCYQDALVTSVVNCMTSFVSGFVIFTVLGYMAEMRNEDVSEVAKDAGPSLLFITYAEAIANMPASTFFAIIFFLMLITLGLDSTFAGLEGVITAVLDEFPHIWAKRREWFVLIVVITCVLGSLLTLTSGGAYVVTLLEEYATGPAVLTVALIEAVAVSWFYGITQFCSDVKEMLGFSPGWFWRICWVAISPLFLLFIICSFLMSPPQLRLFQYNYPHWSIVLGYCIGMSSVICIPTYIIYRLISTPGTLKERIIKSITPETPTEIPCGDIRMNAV
# Text: as §1, §2, §3
# Monoaminoxidase Typ A = molecular target: T3, Monoaminoxidase Typ A (Rattus norvegicus, UniProt P21396); experiment: Inhibition of monoamine oxidase type A in rat brain homogenate (14C-tryptamine); conditions: for Hemmung der Monoaminoxidase Typ A r.W. (relative Wirksamkeit): Quotient IC50 Referenzverbindung / IC50 Beispielverbindung
# T3 construct: Die Bestimmung der Monoaminoxidase erfolgte in verdünntem Rattenhirnhomogenat; from tissue; host or cells: rat brain homogenate
# T3 sequence (P21396 1-526): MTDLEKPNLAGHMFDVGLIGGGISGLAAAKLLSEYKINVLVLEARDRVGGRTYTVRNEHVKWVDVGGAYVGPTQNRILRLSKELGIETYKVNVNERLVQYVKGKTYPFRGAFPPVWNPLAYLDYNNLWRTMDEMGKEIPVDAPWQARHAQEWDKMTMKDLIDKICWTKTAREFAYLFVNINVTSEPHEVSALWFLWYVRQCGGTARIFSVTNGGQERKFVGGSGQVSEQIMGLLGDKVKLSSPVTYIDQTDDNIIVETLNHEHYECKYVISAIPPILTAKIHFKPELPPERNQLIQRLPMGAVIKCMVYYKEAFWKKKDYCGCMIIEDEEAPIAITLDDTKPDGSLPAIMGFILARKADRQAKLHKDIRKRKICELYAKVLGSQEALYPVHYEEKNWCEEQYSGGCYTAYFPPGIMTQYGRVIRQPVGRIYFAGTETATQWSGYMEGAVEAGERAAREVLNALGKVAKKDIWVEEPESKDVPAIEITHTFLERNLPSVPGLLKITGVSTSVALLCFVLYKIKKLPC
# Procedure: (§4) Hemmung der Monoaminoxidase
# (§5) Die Bestimmung der Monoaminoxidase erfolgte in verdünntem Rattenhirnhomogenat dem 1. unterschiedliche Konzentrationen der zu prüfenden Testsubstanzen und 2. für die Bestimmung der Monoaminoxidase Typ A ¹⁴C-Tryptamin in einer Konzentration von 0,4 µmol, zur Bestimmung der Monoaminoxidase Typ B ¹⁴C-Phenylethylamin in einer Konzentration von 0,25 µmol zugesetzt wurde. Dieser Ansatz wurde 20 Minuten bei 37°C inkubiert. Die Reaktion wird durch 0,1 n HCl gestoppt und die Reaktionsprodukte nach Extraktion in Toluol-Szintillator (PPO + POPOP in Toluol) bestimmt. Der Blindwert wird in analogen Ansätzen mit einer Inkubationszeit von t = 0 Minuten bestimmt.
# (§6) Aus den bei den verschiedenen Inhibitorkonzentrationen gegen die Kontrolle ermittelten Hemmwerten wurde durch lineare Regression nach logit-log-Transformation die mittlere Hemmkonzentration (IC₅₀) berechnet.
# Monoaminoxidase Typ B = molecular target: T4, Monoaminoxidase Typ B (Rattus norvegicus, UniProt P19643); experiment: Inhibition of monoamine oxidase type B in rat brain homogenate (14C-phenylethylamine); conditions: for Hemmung der Monoaminoxidase Typ B r.W. (relative Wirksamkeit): Quotient IC50 Referenzverbindung / IC50 Beispielverbindung
# T4 construct: Die Bestimmung der Monoaminoxidase erfolgte in verdünntem Rattenhirnhomogenat; from tissue; host or cells: rat brain homogenate
# T4 sequence (P19643 1-520): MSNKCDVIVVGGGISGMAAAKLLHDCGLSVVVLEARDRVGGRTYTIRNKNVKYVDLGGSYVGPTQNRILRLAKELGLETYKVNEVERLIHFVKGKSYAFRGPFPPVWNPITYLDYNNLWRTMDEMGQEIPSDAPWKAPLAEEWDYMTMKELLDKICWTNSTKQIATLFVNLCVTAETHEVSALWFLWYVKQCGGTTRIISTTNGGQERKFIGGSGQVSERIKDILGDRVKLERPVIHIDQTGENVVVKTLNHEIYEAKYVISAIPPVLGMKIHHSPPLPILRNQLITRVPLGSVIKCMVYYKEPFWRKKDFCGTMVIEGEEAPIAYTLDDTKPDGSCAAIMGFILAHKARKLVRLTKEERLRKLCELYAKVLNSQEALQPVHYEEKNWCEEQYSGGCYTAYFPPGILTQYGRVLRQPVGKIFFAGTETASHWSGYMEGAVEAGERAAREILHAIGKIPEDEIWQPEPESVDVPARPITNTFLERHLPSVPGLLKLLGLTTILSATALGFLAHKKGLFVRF
# Procedure: as §4, §5, §6
# [3] = rat hippocampus synaptosomes, 3H-Noradrenalin ca. 10 nM, 37°C, read-out: Hemmung der Synaptosomen-Aufnahme von Noradrenalin IC50
# [4] = rat cortex synaptosomes, 3H-Serotonin ca. 10 nM, 37°C, read-out: Hemmung der Synaptosomen-Aufnahme von Serotonin IC50
# [5] = rat brain homogenate, 14C-Tryptamin, 20 min 37°C, read-out: Hemmung der Monoaminoxidase Typ A IC50
# [6] = rat brain homogenate, 14C-Phenylethylamin, 20 min 37°C, read-out: Hemmung der Monoaminoxidase Typ B IC50
SMILES,IC50 [1],Hemmung der Synaptosomen-Aufnahme von Noradrenalin r.W. (relative Wirksamkeit) [1],IC50 [2],Hemmung der Synaptosomen-Aufnahme von Serotonin r.W. (relative Wirksamkeit) [2],IC50 (Monoaminoxidase Typ A),Hemmung der Monoaminoxidase Typ A r.W. (relative Wirksamkeit) (Monoaminoxidase Typ A),IC50 (Monoaminoxidase Typ B),Hemmung der Monoaminoxidase Typ B r.W. (relative Wirksamkeit) (Monoaminoxidase Typ B),"IC50 [1, 3]","IC50 [2, 4]",IC50 (Monoaminoxidase Typ A; [5]),IC50 (Monoaminoxidase Typ B; [6]),"Hemmung der Monoaminoxidase A, Wirksamkeit der Vergleichssubstanz übertroffen (fach) (Monoaminoxidase Typ A; fold versus comparison substance)"
"COc1cc(-n2ccc(=N)cn2)ccc1C.Cl [Beispiel 10, 1-(3-Methoxy-4-methylphenyl)-4-(1H)-pyridazinimin-hydrochlorid]",110 nM,0.3,48 nM,15.2,1200 nM,3.4,10000 nM,4.9,–,–,–,–,–
"N=c1ccn(-c2ccc(C(F)(F)F)cc2)nc1 [Beispiel 32, 1-(4-Trifluormethylphenyl)-4-(1H)-pyridazinimin-hydrobromid]",–,0.1,–,16.6,–,0.6,–,12.2,700 nM,44 nM,7000 nM,4000 nM,–
"N=c1ccn(-c2ccc(Br)c(Cl)c2)nc1 [Beispiel 17, 1-(3-Chlor-4-bromphenyl)-4-(1H)-pyridazinimin-hydrochlorid]",–,6.5,–,184,–,2.7,–,19.0,4.8 nM,3.9 nM,1530 nM,2600 nM,–
"N=c1ccn(-c2ccc(Br)cc2)nc1 [Beispiel 8, 1-(4-Bromphenyl)-4-(1H)-pyridazinimin-hydrochlorid]",–,0.9,–,56.2,–,1.4,–,4.9,34 nM,13 nM,2900 nM,10000 nM,–
"Br.Cc1ccc(-n2ccc(=N)cn2)cc1 [Beispiel 5, 1-(4-Methylphenyl)-4-(1H)-pyridazinimin-hydrobromid]",46 nM,0.7,240 nM,1.4,1500 nM,2.8,10000 nM,4.9,–,–,–,–,–
"Cc1ccc(-n2ccc(=N)cn2)cc1Cl [Beispiel 42, 1-(3-Chlor-4-methylphenyl)-4-(1H)-pyridazinimin-hydrochlorid]",–,2.1,–,36.5,–,5.6,–,24.5,15 nM,20 nM,750 nM,2000 nM,–
"Cc1ccc(-n2ccc(=N)cn2)cc1Br [Beispiel 13, 1-(3-Brom-4-methylphenyl)-4-(1H)-pyridazinimin-hydrochlorid]",–,1.2,–,73.0,–,7.0,–,39.8,26 nM,10 nM,590 nM,1200 nM,≤ 7
"Cc1cc(-n2ccc(=N)cn2)ccc1Cl [Beispiel 45, 1-(3-Methyl-4-chlorphenyl)-4-(1H)-pyridazinimin-sulfat]",–,1.8,–,40.6,–,4.2,–,9.8,17 nM,18 nM,1000 nM,5000 nM,–
"N=c1ccn(-c2ccc(C(F)(F)F)c(Cl)c2)nc1 [Beispiel 12, 1-(3-Chlor-4-trifluormethylphenyl)-4-(1H)-pyridazinimin-hydrochlorid]",–,0.4,–,83.9,–,2.3,–,71,83 nM,8.7 nM,1800 nM,700 nM,–
"Cc1cc(-n2ccc(=N)cn2)ccc1Br [Beispiel 46, 1-(3-Methyl-4-bromphenyl)-4-(1H)-pyridazinimin-sulfat]",–,3.1,–,103,–,4.2,–,12.2,10 nM,7.1 nM,1000 nM,4000 nM,–
"CCc1ccc(-n2ccc(=N)cn2)cc1.Cl [Beispiel 7, 1-(4-Ethylphenyl)-4-(1H)-pyridazinimin-hydrochlorid]",500 nM,0.1,58 nM,12.6,640 nM,6.6,1500 nM,32.7,–,–,–,–,–
